Among the data in ChEMBL document CHEMBL5291721, “A preclinical secondary pharmacology resource illuminates target-adverse drug reaction associations of marketed drugs” (Nat Commun, 2023) are AC50 values, retold here.

Assay [1] has as its target T1, Alpha-1A adrenergic receptor (Homo sapiens, UniProt P35348).
T1 sequence (P35348 whole entry): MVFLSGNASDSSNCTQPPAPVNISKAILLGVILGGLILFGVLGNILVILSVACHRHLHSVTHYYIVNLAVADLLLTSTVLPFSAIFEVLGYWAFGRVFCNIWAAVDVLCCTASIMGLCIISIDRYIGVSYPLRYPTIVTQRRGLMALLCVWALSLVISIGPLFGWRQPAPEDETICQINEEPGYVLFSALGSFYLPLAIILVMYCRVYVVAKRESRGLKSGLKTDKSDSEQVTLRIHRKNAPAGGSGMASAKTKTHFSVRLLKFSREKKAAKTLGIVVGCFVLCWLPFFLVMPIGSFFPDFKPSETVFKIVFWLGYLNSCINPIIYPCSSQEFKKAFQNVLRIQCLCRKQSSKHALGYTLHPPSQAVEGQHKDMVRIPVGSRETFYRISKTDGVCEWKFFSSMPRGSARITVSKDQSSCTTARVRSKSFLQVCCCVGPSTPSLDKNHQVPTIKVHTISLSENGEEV

Assay [2] deals with T2, D(1A) dopamine receptor (Homo sapiens, UniProt P21728).
T2 sequence (P21728 whole entry): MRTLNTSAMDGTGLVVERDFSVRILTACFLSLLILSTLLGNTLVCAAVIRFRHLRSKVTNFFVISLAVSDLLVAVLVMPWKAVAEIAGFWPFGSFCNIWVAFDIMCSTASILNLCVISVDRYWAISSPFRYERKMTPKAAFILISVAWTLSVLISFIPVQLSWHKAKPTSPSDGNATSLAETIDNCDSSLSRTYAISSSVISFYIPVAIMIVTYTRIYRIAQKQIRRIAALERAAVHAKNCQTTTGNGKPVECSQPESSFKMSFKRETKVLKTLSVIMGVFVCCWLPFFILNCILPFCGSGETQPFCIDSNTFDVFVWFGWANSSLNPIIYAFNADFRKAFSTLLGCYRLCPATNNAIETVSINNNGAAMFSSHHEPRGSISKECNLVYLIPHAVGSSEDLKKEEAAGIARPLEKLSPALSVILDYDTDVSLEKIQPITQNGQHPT
The target of assay [3] is Voltage-dependent N-type calcium channel subunit alpha-1B (Rattus norvegicus, UniProt Q02294). It counts as functional.
Chain of Voltage-dependent N-type calcium channel subunit alpha-1B (Q02294 whole entry): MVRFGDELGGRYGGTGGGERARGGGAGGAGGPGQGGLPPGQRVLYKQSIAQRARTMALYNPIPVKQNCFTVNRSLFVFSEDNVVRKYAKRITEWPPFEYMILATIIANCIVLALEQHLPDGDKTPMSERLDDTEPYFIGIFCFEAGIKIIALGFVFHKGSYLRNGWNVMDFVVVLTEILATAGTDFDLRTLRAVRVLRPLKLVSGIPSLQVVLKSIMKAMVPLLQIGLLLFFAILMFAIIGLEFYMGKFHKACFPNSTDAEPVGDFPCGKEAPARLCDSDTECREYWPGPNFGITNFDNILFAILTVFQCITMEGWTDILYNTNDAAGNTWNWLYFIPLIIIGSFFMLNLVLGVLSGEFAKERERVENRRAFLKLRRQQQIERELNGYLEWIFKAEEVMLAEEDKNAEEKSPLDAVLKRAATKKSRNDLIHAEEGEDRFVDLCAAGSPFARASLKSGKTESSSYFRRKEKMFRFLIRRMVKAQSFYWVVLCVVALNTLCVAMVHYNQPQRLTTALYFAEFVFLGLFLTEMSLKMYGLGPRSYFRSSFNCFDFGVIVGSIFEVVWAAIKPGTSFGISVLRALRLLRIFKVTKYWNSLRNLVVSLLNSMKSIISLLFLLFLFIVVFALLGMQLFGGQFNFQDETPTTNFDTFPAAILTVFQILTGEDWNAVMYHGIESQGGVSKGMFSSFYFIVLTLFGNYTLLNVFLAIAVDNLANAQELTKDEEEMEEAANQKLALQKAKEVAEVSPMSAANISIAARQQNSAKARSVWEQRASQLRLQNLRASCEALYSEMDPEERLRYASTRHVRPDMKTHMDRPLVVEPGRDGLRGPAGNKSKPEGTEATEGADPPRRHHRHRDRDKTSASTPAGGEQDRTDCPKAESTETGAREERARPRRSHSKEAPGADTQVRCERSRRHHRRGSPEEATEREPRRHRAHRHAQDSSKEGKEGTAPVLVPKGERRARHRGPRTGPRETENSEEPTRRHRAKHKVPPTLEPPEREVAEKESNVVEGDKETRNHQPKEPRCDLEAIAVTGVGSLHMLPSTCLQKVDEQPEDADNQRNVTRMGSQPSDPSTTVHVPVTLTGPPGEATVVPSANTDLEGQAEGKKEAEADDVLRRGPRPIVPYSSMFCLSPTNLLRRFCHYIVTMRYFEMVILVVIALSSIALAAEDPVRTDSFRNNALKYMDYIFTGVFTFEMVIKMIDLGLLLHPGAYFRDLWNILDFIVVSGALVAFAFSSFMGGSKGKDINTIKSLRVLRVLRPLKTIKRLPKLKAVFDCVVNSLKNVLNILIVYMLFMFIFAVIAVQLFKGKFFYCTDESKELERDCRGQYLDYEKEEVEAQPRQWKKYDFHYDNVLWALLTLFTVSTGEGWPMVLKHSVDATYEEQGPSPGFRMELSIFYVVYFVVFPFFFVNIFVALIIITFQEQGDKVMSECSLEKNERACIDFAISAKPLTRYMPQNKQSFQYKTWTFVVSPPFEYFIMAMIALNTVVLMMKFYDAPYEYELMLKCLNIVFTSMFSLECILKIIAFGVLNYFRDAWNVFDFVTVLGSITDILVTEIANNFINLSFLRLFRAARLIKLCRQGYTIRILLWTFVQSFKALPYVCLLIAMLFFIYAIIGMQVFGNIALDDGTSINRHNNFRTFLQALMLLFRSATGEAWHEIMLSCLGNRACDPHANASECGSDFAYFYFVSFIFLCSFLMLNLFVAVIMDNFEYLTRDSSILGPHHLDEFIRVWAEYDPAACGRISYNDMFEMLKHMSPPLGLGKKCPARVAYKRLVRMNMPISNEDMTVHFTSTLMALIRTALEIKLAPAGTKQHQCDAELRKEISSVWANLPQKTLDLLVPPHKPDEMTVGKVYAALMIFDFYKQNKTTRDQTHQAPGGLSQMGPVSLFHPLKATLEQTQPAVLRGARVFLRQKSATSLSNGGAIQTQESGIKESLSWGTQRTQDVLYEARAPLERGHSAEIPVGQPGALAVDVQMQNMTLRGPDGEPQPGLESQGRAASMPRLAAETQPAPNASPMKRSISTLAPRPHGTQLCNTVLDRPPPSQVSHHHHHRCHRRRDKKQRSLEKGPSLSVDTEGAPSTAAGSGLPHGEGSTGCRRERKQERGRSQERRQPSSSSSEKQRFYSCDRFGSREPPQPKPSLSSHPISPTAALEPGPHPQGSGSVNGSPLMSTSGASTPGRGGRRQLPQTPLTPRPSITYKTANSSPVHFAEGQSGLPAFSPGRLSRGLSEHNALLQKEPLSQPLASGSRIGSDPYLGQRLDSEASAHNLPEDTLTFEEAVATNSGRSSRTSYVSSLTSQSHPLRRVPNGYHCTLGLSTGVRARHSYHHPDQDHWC
Assay [4] addresses T3, Corticotropin-releasing factor receptor 1 (Homo sapiens, UniProt P34998).
T3 sequence (P34998 whole entry): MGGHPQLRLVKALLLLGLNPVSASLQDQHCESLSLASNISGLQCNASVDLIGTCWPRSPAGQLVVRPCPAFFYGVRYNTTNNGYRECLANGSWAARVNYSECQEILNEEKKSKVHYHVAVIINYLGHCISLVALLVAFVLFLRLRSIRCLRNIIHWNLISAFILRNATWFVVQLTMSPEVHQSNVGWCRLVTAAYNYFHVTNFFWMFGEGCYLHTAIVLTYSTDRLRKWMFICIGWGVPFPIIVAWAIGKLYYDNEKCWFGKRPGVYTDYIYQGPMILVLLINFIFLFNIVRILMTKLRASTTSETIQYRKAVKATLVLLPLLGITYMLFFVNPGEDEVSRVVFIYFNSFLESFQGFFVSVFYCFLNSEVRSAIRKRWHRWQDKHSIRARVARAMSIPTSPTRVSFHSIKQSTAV

Assay [5] has as its target T4, Endothelin receptor type B (Homo sapiens, UniProt P24530).
T4 sequence (P24530 whole entry): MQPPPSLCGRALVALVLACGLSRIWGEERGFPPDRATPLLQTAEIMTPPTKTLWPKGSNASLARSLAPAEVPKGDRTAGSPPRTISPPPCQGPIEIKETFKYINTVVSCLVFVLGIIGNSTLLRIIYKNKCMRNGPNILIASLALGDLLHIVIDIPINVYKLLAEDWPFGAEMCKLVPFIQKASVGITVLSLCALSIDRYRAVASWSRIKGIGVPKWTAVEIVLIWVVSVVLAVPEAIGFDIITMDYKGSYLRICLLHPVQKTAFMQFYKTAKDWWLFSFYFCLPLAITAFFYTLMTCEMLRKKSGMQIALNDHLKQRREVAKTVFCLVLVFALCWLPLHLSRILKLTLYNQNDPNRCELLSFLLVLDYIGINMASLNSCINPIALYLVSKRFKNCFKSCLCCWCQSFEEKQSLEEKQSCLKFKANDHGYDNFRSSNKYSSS

Assay [6] concerns the target Glucagon receptor (Homo sapiens, UniProt P47871).
Assay [7] concerns the target T5, Gastric inhibitory polypeptide receptor (Homo sapiens, UniProt P48546).
T5 sequence (P48546 whole entry): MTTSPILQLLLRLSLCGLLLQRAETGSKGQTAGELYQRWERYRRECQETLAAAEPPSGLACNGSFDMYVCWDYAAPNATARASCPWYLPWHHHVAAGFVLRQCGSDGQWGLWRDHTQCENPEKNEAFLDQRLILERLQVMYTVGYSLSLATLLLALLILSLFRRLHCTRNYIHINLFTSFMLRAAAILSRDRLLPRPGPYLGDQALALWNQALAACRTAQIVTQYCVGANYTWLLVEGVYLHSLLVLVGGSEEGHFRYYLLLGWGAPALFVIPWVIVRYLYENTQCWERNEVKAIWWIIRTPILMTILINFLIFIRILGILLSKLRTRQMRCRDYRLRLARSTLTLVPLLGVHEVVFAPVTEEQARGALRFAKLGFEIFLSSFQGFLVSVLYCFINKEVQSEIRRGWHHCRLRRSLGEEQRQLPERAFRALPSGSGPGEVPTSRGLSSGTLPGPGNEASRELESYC

Assay [8] has as its target T6, Neuropeptide Y receptor type 2 (Homo sapiens, UniProt P49146).
T6 sequence (P49146 whole entry): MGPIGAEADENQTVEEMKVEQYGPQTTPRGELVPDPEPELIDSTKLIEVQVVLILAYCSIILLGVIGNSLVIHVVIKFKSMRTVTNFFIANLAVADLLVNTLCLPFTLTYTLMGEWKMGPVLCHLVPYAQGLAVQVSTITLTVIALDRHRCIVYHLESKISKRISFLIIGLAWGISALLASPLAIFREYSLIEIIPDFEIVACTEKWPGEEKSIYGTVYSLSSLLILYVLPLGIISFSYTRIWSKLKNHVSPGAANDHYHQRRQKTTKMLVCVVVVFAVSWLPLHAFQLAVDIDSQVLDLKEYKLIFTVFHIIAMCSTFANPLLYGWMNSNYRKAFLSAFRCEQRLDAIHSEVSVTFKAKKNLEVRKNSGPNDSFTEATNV

The target of assay [9] is T2, D(1A) dopamine receptor. The source holds these as a separate data set.
The target of assay [10] is T7, Thromboxane A2 receptor (Homo sapiens, UniProt P21731).
T7 sequence (P21731 whole entry): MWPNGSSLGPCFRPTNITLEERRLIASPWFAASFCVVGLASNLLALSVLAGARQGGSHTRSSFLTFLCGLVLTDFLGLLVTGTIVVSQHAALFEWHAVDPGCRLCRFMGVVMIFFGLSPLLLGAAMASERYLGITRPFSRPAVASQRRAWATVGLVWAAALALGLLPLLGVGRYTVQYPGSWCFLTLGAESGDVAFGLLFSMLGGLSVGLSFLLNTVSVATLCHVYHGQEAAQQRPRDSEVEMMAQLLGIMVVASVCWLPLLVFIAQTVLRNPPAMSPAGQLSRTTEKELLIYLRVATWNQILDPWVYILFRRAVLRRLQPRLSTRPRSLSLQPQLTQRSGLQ
It is filed as functional, cell-based.

The AC50 is the midpoint of the concentration-response curve, whichever way the signal moves.

Molecules are shown by their SMILES. Where only a bound is given, the exact number is not on record here.
Note: assay procedure not described here.

Chain of Glucagon receptor (P47871 whole entry): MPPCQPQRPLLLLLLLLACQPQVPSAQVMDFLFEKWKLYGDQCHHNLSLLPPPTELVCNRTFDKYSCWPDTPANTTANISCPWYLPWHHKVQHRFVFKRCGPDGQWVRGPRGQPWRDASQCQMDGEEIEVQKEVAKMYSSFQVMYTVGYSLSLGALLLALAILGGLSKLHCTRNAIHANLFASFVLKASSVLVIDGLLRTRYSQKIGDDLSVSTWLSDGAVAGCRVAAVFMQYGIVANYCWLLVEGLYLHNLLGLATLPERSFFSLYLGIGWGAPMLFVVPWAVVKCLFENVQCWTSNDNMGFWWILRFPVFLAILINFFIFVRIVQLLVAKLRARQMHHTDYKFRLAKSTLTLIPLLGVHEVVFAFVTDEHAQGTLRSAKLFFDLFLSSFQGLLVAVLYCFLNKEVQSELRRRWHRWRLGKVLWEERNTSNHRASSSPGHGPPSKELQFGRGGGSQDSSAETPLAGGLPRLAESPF

Consider `O=C(O)[C@@H](S)[C@@H](S)C(=O)O`, for which the AC50 in assay [1] and in [2] was greater than 30 µM in each case.
Turning to `CCOC(=O)[C@H](CCc1ccccc1)N[C@@H](C)C(=O)N1Cc2ccccc2C[C@H]1C(=O)O`, the half-maximal activity concentration (AC50) in assay [3] is greater than 10 µM; in [4], greater than 30 µM; in assay [5], greater than 30 µM; in [6], greater than 30 µM; in [7], greater than 30 µM; in [8], greater than 30 µM. In [9], this compound yielded an AC50 greater than 10 µM.
As for `CC#CC(=O)N1CCC[C@H]1c1nc(-c2ccc(C(=O)Nc3ccccn3)cc2)c2c(N)nccn12` [ACALABRUTINIB], the AC50 in [1] and in [2] was greater than 30 µM in each case.
Regarding `CN(C)CCC=C1c2ccccc2CCc2ccccc21` [AMITRIPTYLINE], the half-maximal activity concentration (AC50) in assay [3] was greater than 10 µM; in [4], greater than 30 µM; in [5], greater than 30 µM; in assay [6] it was greater than 30 µM; in assay [7], greater than 30 µM; in assay [8], greater than 30 µM. The values for the AC50 in assay [9] and in [10] were 0.452 µM and greater than 30 µM, respectively.
As for `CC(=O)Oc1ccccc1C(=O)O` [ASPIRIN], the AC50 was greater than 10 µM in assay [3]; greater than 30 µM in assay [4]; greater than 30 µM in assay [5]; greater than 30 µM in assay [6]; greater than 30 µM in assay [7]; greater than 30 µM in assay [8]. The figures for the AC50 in assay [9] and in assay [10] were greater than 10 µM and greater than 30 µM, respectively.
For `Cn1cnc2c(F)c(Nc3ccc(Br)cc3F)c(C(=O)NOCCO)cc21` [BINIMETINIB], the concentration at half-maximal activity (AC50) in assay [10] is greater than 30 µM.
As to `O=C(Cc1cccs1)N[C@@H]1C(=O)N2C(C(=O)[O-])=C(C[n+]3ccccc3)CS[C@H]12` [CEPHALORIDINE], the AC50 in [1] and in assay [2] was greater than 30 µM throughout.
For the compound `CN(C)CCCC1(c2ccc(F)cc2)OCc2cc(C#N)ccc21` (stereo unspecified) [CITALOPRAM], the AC50 is greater than 10 µM in assay [3]; greater than 30 µM in assay [4]; greater than 30 µM in assay [5]; greater than 30 µM in assay [6]; greater than 30 µM in [7]; greater than 30 µM in [8].
On to `C[C@H](Nc1ncnc2[nH]cnc12)c1cc2cccc(Cl)c2c(=O)n1-c1ccccc1` [DUVELISIB], for which the AC50 in assay [1] and in [2] was greater than 30 µM in each case.
`C[C@]12CCC(=O)C=C1CC[C@H]1[C@@H]3CC[C@](O)(C(=O)CO)[C@@]3(C)C[C@H](O)[C@@]12F` [FLUDROCORTISONE]: the concentration at half-maximal activity (AC50) is greater than 10 µM in assay [3]; greater than 30 µM in [4]; greater than 30 µM in assay [5]; greater than 30 µM in assay [6]; greater than 30 µM in [7]; greater than 30 µM in assay [8]. In addition, the AC50 in assay [9] is greater than 10 µM.
As for `NCC1(CC(=O)O)CCCCC1` [GABAPENTIN], the concentration at half-maximal activity (AC50) in assay [4] is greater than 30 µM; in assay [5], greater than 30 µM; in [6], greater than 30 µM; in [7] it was greater than 30 µM; in assay [8], greater than 30 µM; in [9], greater than 10 µM. Moreover, the AC50 in assay [10] was greater than 30 µM.
Consider `OCCOCCN1CCN(C(c2ccccc2)c2ccc(Cl)cc2)CC1` (stereo unspecified) [HYDROXYZINE], for which the AC50 in [3] is greater than 10 µM; in [4], greater than 30 µM; in assay [5] it was greater than 30 µM; in [6], greater than 30 µM; in assay [7] it was greater than 30 µM; in [8], greater than 30 µM. In addition, the half-maximal activity concentration (AC50) in [9] was greater than 10 µM.
Consider `C[C@@H](O)[C@H]1C(=O)N2C(C(=O)O)=C(SCCN=CN)C[C@H]12` [IMIPENEM ANHYDROUS], for which the AC50 in [10] was greater than 300 µM.
As to `Nc1nnc(-c2cccc(Cl)c2Cl)c(N)n1` [LAMOTRIGINE], the concentration at half-maximal activity (AC50) in assay [3] is greater than 10 µM; in assay [4], greater than 30 µM; in assay [5] it was greater than 30 µM; in assay [6], greater than 30 µM; in assay [7], greater than 30 µM; in assay [8], greater than 30 µM. Also, the concentration at half-maximal activity (AC50) in assay [9] is greater than 10 µM.
Turning to `CCCCCCO[C@@H](C)c1cccc(-c2csc(NC(=O)c3cc(Cl)c(/C=C(\C)C(=O)O)c(Cl)c3)n2)c1OC` [LUSUTROMBOPAG], the AC50 in assay [1] was greater than 30 µM; in assay [2], 5.53 µM.
On to `CO[C@@H]1[C@@H](OC(N)=O)[C@@H](O)[C@H](Oc2ccc3c(O)c(NC(=O)c4ccc(O)c(CC=C(C)C)c4)c(=O)oc3c2C)OC1(C)C` [NOVOBIOCIN], for which, in [10], the AC50 is greater than 30 µM.
As for `C#CCN(C)Cc1ccccc1` [PARGYLINE], the half-maximal activity concentration (AC50) in assay [1] and in [2] was greater than 30 µM each time.
Take `CC(=O)SCC(Cc1ccccc1)C(=O)NCC(=O)OCc1ccccc1` (stereo unspecified) [RACECADOTRIL]: the AC50 in assay [3] and in assay [9] was greater than 10 µM throughout.
With `Cc1c(C)c2c(c(C)c1O)CCC(C)(COc1ccc(CC3SC(=O)NC3=O)cc1)O2` (stereo unspecified) [TROGLITAZONE], the concentration at half-maximal activity (AC50) in [4], in assay [5], in [6], in assay [7] and in [8] was greater than 30 µM throughout.
In assay [10], `c1cnc2cc3c(cc2n1)[C@@H]1CNC[C@H]3C1` [VARENICLINE] showed an AC50 greater than 30 µM.
On the same count and under the same terms, the result for `Nc1c2c(nc3ccccc13)CCCC2O` (stereo unspecified) [VELNACRINE] reads greater than 30 µM.
